Results on 24 compounds are retold here after patent publication US20240391931A1 (Bristol-Myers Squibb Company, priority 2021, published 2024).

Structures are written as SMILES. Counter-ions that a name gives are not always drawn.

Experiment [1] addresses T1, HER2 WT (Homo sapiens, UniProt P04626).
T1 construct: purchased ProQinase, Freiburg, Germany ERBB2 0108-0000-1
Description: Enzymatic assay HER2 WT (method a). The format is biochemical. Conditions: [HER2 WT]=12.5 nM, [ATP]=25 μM, [Peptide 22]=1 μM. As to the method: (§1) A 2× stock solution of HER2 WT (ERBB2 0108-0000-1; ProQinase, Freiburg, Germany) corresponding to method a, was prepared as described below. Alternatively, a 2× stock solution of HER2YVMA (custom purification; Viva biotech, Shanghai, China) corresponding to method b, was prepared as described below. For method c, a 2× stock of EGFR (ERBB1 PR7295B, Thermo Fisher, Carlsbad, CA) was prepared as described below. All 2× solutions were prepared in buffer containing 50 mM HEPES, pH 7.5, 10 mM MnCl2, MgCl2, 0.005% Tween 20, 1 mM TCEP. 25 ul of 2× enzyme solution was added to a Seahorse low volume 384-well polypropylene assay plate (201288-100, Seahorse Bioscience, Chicopee, MA) containing 1 μl of compound serially diluted in 50% DMSO. To initiate the reaction, 25 μl of solution containing 2× final concentration of ATP and ProfilerPro Peptide 22 (760366, Perkin Elmer Hopkinton, MA) was added to each well. The reactions were separated on an LC3000 (Caliper Life Sciences) or a LabChip EZReader (Perkin Elmer) in kinetic mode.
(§2) At the conclusion of each assay, the data were exported from the instrument as a .rda file (LC3000) and processed in proprietary software, EZReviewer, which determines the percent of substrate converted to product within a given cycle as (P/P+S)*100 by measuring the amplitude of substrate and product peaks. Cycle time varied with amount of compounds tested between 8 and 12 cycles. Initial velocity (0-3600 s) from each reaction was determined from the slope of a plot of percent conversion at each cycle versus time (seconds). Percent inhibition was determined by dividing the slope of each reaction by the uninhibited control using 100*(1-(x/uninhibited control)). IC50 estimates were obtained by plotting the concentration of inhibitor versus percent inhibition in GraphPad Prism (GraphPad Software, San Diego, CA) using log[inhibitor] versus Response (Variable Slope Model); Y=Min+((Max-Min)/(1+((IC50/x)^Hillslope)))
(§3) • a) [HER2 WT]=12.5 nM, [ATP]=25 μM, [Peptide 22]=1 μM (ATP KMapp˜25 μM) • b) [HER2YVMA]=5 nM, [ATP]=25 μM, [Peptide 22]=1 μM (ATP KMapp˜15 μM) • c) [EGFR WT]=2 nM, [ATP]=1 mM, [Peptide 22]=1 μM (ATP KMapp˜25 μM)

Experiment [2] addresses HER2YVMA (Homo sapiens, UniProt P04626, INS775YVMA). Description: Enzymatic assay HER2YVMA (method b). The note with it: [HER2YVMA]=5 nM, [ATP]=25 μM, [Peptide 22]=1 μM. The format is biochemical. Further details: purchased Viva biotech, Shanghai, China custom purification. As to the method:
as §1, §2, §3

Sequence of HER2YVMA (P04626 with tags, fused parts or gaps INS775YVMA): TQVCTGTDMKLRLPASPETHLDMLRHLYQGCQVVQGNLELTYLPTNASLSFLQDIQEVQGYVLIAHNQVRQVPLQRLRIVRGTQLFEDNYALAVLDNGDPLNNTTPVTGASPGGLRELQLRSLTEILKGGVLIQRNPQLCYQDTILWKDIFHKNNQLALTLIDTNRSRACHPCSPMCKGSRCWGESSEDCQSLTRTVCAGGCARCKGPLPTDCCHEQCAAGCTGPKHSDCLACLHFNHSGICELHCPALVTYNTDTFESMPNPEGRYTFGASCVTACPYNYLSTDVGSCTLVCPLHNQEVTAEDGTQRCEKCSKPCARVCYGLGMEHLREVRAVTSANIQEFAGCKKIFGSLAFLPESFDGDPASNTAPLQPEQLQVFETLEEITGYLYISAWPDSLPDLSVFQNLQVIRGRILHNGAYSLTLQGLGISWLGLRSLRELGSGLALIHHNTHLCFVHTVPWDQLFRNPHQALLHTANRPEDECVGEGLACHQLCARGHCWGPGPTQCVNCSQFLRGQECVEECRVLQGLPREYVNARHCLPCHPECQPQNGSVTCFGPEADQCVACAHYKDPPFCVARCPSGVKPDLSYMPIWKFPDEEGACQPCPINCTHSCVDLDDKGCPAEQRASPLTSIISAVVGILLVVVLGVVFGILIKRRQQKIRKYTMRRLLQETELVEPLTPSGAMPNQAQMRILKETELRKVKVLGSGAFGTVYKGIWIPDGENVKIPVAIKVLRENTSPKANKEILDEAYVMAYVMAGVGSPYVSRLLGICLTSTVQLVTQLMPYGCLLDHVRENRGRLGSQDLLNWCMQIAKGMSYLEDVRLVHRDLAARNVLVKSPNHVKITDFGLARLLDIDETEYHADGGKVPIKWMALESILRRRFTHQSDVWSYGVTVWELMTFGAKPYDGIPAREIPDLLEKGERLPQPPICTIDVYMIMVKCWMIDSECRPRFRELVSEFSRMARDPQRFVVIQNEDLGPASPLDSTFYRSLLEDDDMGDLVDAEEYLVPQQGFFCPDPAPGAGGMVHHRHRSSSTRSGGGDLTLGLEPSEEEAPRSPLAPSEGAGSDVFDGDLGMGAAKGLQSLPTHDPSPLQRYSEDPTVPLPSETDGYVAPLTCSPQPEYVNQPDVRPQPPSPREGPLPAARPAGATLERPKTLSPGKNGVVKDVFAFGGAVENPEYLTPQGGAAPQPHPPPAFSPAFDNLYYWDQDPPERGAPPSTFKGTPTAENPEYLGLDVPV
T1 sequence (P04626 23-1255): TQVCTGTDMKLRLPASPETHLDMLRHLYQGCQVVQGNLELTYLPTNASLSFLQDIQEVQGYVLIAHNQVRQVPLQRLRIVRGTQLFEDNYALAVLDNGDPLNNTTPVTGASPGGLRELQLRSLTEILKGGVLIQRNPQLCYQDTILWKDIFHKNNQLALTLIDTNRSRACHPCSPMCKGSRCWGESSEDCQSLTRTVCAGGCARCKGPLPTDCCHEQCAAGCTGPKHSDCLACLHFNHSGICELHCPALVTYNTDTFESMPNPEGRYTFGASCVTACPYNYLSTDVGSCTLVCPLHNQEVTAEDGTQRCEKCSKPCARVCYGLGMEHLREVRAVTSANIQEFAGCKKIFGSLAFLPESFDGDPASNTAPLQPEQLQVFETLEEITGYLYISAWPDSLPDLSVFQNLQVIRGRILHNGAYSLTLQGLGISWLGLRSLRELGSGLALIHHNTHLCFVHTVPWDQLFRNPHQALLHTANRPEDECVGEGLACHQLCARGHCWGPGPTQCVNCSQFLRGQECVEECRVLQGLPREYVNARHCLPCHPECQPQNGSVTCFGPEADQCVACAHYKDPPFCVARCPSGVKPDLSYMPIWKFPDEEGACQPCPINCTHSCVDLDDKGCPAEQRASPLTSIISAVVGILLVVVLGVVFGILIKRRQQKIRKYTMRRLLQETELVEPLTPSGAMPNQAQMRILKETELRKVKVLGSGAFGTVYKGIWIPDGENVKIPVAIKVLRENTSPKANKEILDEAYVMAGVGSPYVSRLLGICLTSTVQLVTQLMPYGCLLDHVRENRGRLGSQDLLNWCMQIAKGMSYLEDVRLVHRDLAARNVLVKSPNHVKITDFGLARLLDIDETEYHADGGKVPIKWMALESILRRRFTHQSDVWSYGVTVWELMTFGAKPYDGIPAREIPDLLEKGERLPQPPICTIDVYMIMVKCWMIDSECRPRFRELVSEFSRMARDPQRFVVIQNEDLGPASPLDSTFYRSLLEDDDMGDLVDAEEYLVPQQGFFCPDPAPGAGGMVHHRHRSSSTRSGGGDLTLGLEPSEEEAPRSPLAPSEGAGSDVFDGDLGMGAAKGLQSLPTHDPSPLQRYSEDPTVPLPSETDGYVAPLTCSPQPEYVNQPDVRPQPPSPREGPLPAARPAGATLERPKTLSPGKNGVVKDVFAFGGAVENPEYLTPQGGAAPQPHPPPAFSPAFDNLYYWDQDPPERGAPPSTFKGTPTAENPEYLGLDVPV

For `C=CC(=O)N1[C@H](C)Cc2c(sc3ncnc(Nc4ccc(Oc5ccc(C)nc5)c(C)c4)c23)[C@H]1C` (racemic) [Compound 166, 1-(6,8-trans-dimethyl-4-((3-methyl-4-((6-methylpyridin-3-yl)oxy)phenyl)amino)-5,8-dihydropyrido[4′,3′:4,5]thieno[2,3-d]pyrimidin-7(6H)-yl)prop-2-en-1-one], the IC50 in experiment [1] and in experiment [2] was 100 to 1000 nM in each case.
Regarding `Cc1cc(Nc2ncnc3sc4c(c23)CCN(C(=O)/C=C/CN(C)C)C4)ccc1Oc1ccn2ccnc2c1` [Compound 126, (E)-4-(dimethylamino)-1-(4-((4-(imidazo[1,2-a]pyridin-7-yloxy)-3-methylphenyl)amino)-5,8-dihydropyrido[4′,3′:4,5]thieno[2,3-d]pyrimidin-7(6H)-yl)but-2-en-1-one], the half-maximal inhibitory concentration (IC50) in experiment [1] and in experiment [2] was less than 100 nM each time.
Turning to `Cc1ccc(Oc2ccc(Nc3ncnc4sc5c(c34)C(C)CN(C(=O)/C=C/CN3CCOCC3)C5)cc2C)cn1` (stereo not drawn) [Compound 174, (E)-1-(5-Methyl-4-((3-methyl-4-((6-methylpyridin-3-yl)oxy)phenyl)amino)-5,6-dihydropyrido[4′,3′:4,5]thieno[2,3-d]pyrimidin-7(8H)-yl)-4-morpholinobut-2-en-1-one], the IC50 was 100 to 1000 nM in experiment [1] and less than 100 nM in experiment [2].
`Cc1ccc(Oc2ccc(Nc3ncnc4sc5c(c34)CCN(C(=O)/C=C/CN3CCO[C@H](CO)C3)C5)cc2C)cn1` [Compound 136]: the concentration for half-maximal inhibition (IC50) in experiment [1] and in experiment [2] was less than 100 nM in each case.
Consider `COc1ccc(Oc2ccc(Nc3ncnc4sc5c(c34)CCN(C(=O)/C=C/CN(C)C(C)(C)C)C5)cc2C)cn1` [Compound 163], for which the IC50 in experiment [1] and in experiment [2] was less than 100 nM throughout.
Consider `Cc1cc(Nc2ncnc3sc4c(c23)CCN(C(=O)/C=C/CN(C)C)C4)ccc1Oc1ccc2scnc2c1` [Compound 107, (E)-1-(4-((4-(benzo[d]thiazol-5-yloxy)-3-methylphenyl)amino)-5,8-dihydropyrido[4′,3′:4,5]thieno[2,3-d]pyrimidin-7(6H)-yl)-4-(dimethylamino)but-2-en-1-one], for which the half-inhibitory concentration (IC50) in experiment [1] and in experiment [2] was less than 100 nM in each case.
Take `Cc1ccc(Oc2ccc(Nc3ncnc4sc5c(c34)CCN(C(=O)/C=C/CN3CC4CCC(C4)C3)C5)cc2C)cn1` [Compound 16, (E)-4-(3-azabicyclo[3.2.1]octan-3-yl)-1-(4-((3-methyl-4-((6-methylpyridin-3-yl)oxy)phenyl)amino)-5,8-dihydropyrido[4′,3′:4,5]thieno[2,3-d]pyrimidin-7(6H)-yl)but-2-en-1-one benzenesulfonate salt]: the IC50 in experiment [1] and in experiment [2] was less than 100 nM throughout.
Consider `Cc1ccc(Oc2ccc(Nc3ncnc4sc5c(c34)C(C)CN(C(=O)C=CCN(C)C(C)(C)C)C5)cc2C)cn1` (single isomer, unassigned) [Compound 178], for which the half-inhibitory concentration (IC50) in experiment [1] and in experiment [2] was 100 to 1000 nM each time.
`COc1ccc(Oc2ccc(Nc3ncnc4sc5c(c34)CCN(C(=O)/C=C/CN(C)C)CC5)cc2C)cn1` [Compound 173, (E)-4-(Dimethylamino)-1-(4-((4-((6-methoxypyridin-3-yl)oxy)-3-methylphenyl)amino)-8,9-dihydro-5H-pyrimido[5′,4′:4,5]thieno[2,3-d]azepin-7(6H)-yl)but-2-en-1-one]: the 50% inhibitory concentration (IC50) in experiment [1] and in experiment [2] was 100 to 1000 nM throughout.
On to `C#CCOCCN(C)C/C=C/C(=O)N1CCc2c(sc3ncnc(Nc4ccc(Oc5ccc(C)nc5)c(C)c4)c23)C1` [Compound 139], for which the concentration for half-maximal inhibition (IC50) in experiment [1] and in experiment [2] was less than 100 nM in each case.
Consider `Cc1ccc(Oc2ccc(Nc3ncnc4sc5c(c34)CCN(C(=O)/C=C/CN(C)C)CC5)cc2Cl)cn1` [Compound 167, (E)-1-(4-((3-Chloro-4-((6-methylpyridin-3-yl)oxy)phenyl)amino)-8,9-dihydro-5H-pyrimido[5′,4′:4,5]thieno[2,3-d]azepin-7(6H)-yl)-4-(dimethylamino)but-2-en-1-one], for which the half-inhibitory concentration (IC50) in experiment [1] and in experiment [2] was 100 to 1000 nM throughout.
With `Cc1ccc(Oc2ccc(Nc3ncnc4sc5c(c34)C(C)N(C(=O)/C=C/CN(C)C)C5)cc2C)cn1` (stereo not drawn) [Compound 141, (E)-4-(dimethylamino)-1-(5-methyl-4-((3-methyl-4-((6-methylpyridin-3-yl)oxy)phenyl)amino)-5,7-dihydro-6H-pyrrolo[3′,4′:4,5]thieno[2,3-d]pyrimidin-6-yl)but-2-en-1-one], the IC50 in experiment [1] and in experiment [2] was less than 100 nM in each case.
As to `Cc1ccc(Oc2ccc(Nc3ncnc4sc5c(c34)CCN(C(=O)/C=C/CN(C)C)C5)cc2C)cn1` [Compound 8, (E)-4-(Dimethylamino)-1-(4-((3-methyl-4-((6-methylpyridin-3-yl)oxy)phenyl)amino)-5,6-dihydropyrido[4′,3′:4,5]thieno[2,3-d]pyrimidin-7(8H)-yl)but-2-en-1-one], the 50% inhibitory concentration (IC50) in experiment [1] and in experiment [2] was less than 100 nM throughout.
`COc1ccc(Oc2ccc(Nc3ncnc4sc5c(c34)C(C)CN(C(=O)C=CCN(C)C)C5)cc2C)cn1` (single isomer, unassigned) [Compound 159]: the concentration for half-maximal inhibition (IC50) in experiment [1] and in experiment [2] was 100 to 1000 nM throughout.
Consider `Cc1ccc(Oc2ccc(Nc3ncnc4sc5c(c34)C(C)CN(C(=O)C=CCN3CCOCC3)C5)cc2C)cn1` (single isomer, unassigned) [Compound 176], for which the 50% inhibitory concentration (IC50) in experiment [1] and in experiment [2] was 100 to 1000 nM each time.
With `Cc1ccc(Oc2ccc(Nc3ncnc4sc5c(c34)CN(C(=O)C=CCN(C)C)C5C)cc2C)cn1` (single isomer, unassigned) [Compound 170], the half-inhibitory concentration (IC50) in experiment [1] and in experiment [2] was 1000 to 10000 nM each time.
`COc1ccc(Oc2ccc(Nc3ncnc4sc5c(c34)CN(C(=O)/C=C/CN(C)C)C5)cc2C)cn1` [Compound 128, (E)-4-(dimethylamino)-1-(4-((4-((6-methoxypyridin-3-yl)oxy)-3-methylphenyl)amino)-5,7-dihydro-6H-pyrrolo[3′,4′:4,5]thieno[2,3-d]pyrimidin-6-yl)but-2-en-1-one]: the results for the IC50 in experiment [1] and in experiment [2] were 100 to 1000 nM and less than 100 nM, respectively.
The matching figures for `CCN(CC)C/C=C/C(=O)N1CCc2c(sc3ncnc(Nc4ccc(Oc5ccc(C)nc5)c(C)c4)c23)C1` [Compound 131]: less than 100 nM and less than 100 nM.
The matching figures for `Cc1ccc(Oc2ccc(Nc3ncnc4sc5c(c34)CCN(C(=O)/C=C/CN3CCO[C@@H](CO)C3)C5)cc2C)cn1` [Compound 144]: less than 100 nM and 100 to 1000 nM.
Regarding `Cc1ccc(Oc2ccc(Nc3ncnc4sc5c(c34)CCN(C(=O)/C=C/CN3CC(CO)(CO)C3)C5)cc2C)cn1` [Compound 134], the concentration for half-maximal inhibition (IC50) in experiment [1] and in experiment [2] was less than 100 nM throughout.
For the compound `Cc1cc(Nc2ncnc3sc4c(c23)CCN(C(=O)/C=C/CN(C)C)C4)ccc1Oc1ccn2ncnc2c1` [Compound 138, (E)-1-(4-((4-([1,2,4]triazolo[1,5-a]pyridin-7-yloxy)-3-methylphenyl)amino)-5,8-dihydropyrido[4′,3′:4,5]thieno[2,3-d]pyrimidin-7(6H)-yl)-4-(dimethylamino)but-2-en-1-one], the concentration for half-maximal inhibition (IC50) in experiment [1] and in experiment [2] was less than 100 nM throughout.
On to `Cc1ccc(Oc2ccc(Nc3ncnc4sc5c(c34)CN(C(=O)/C=C/CN(C)C)C5)cc2Cl)cn1` [Compound 129, (E)-1-(4-((3-Chloro-4-((6-methylpyridin-3-yl)oxy)phenyl)amino)-5H-pyrrolo[3′,4′:4,5]thieno[2,3-d]pyrimidin-6(7H)-yl)-4-(dimethylamino)but-2-en-1-one], for which the 50% inhibitory concentration (IC50) in experiment [1] and in experiment [2] was less than 100 nM in each case.
For the compound `Cc1ccc(Oc2ccc(Nc3ncnc4sc5c(c34)CCN(C(=O)/C=C/CN3CCCC(c4nccs4)C3)C5)cc2C)cn1` (stereo not drawn) [Compound 113], the half-inhibitory concentration (IC50) in experiment [1] and in experiment [2] was less than 100 nM throughout.
As for `Cc1ccc(Oc2ccc(Nc3ncnc4sc5c(c34)CCN(C(=O)/C=C/CN3CCOCC3)C5)cc2C)cn1` [Compound 17, (E)-1-(4-((3-Methyl-4-((6-methylpyridin-3-yl)oxy)phenyl)amino)-5,6-dihydropyrido[4′,3′:4,5]thieno[2,3-d]pyrimidin-7(8H)-yl)-4-morpholinobut-2-en-1-one], the IC50 in experiment [1] and in experiment [2] was less than 100 nM throughout.
